Results published in patent publication EP4623908A1, “USE OF (-)-EPIGALLOCATECHIN GALLATE COMPOUND” (CF Pharmtech, Inc., priority 2022, dated 2024).

System: Pulmonary Fibrosis Induced by Bleomycin in Rats
Test: Bleomycin-induced pulmonary fibrosis model in rats (Example 5)
Format: in vivo, SD rats
Conditions: for Hydroxyproline Content: rat lung tissue, Mean ±SEM
Method: This study aims to compare the effects of different administration methods, including oral gavage of EGCG, tracheal nebulization of pirfenidone solution, and tracheal nebulization of EGCG at different doses, on the collagen content in lung tissues and pathological observations of rats with bleomycin-induced pulmonary fibrosis. The therapeutic effect of inhaled EGCG on rat pulmonary fibrosis was evaluated.
The solvents for the EGCG nebulization solution, modeling agents, and their solvents are as described in Example 4. The positive control drug is pirfenidone (purity 99%, pharmaceutical grade), with the solvent components consisting of NaCl and citric acid, forming a clear liquid.
SPF-grade SD rats, 6-9 weeks old with a weight of 200-300g, totaling 88 rats, were randomly divided into the following groups: • Sham operation group (normal control) (8 rats) • Pulmonary fibrosis model control group (10 rats) • Oral gavage EGCG group 1 (10 rats) • Oral gavage EGCG group 2 (10 rats) • Tracheal Nebulization EGCG solution groups 1-4 (10 rats per group, total 40 rats) • Tracheal Nebulization pirfenidone solution group (10 rats)
On D1, the normal control group was administered solvent 2 (saline injection solution, 1 mL/kg) via tracheal nebulization, while all other groups were administered bleomycin (2.5 mg/kg, 1 mL/kg) via tracheal nebulization twice a day (morning and afternoon) to establish the model. On D8, the body weights of the animals were recorded. From D10 to D28, the normal control and pulmonary fibrosis model groups were treated with solvent 1 via tracheal nebulization, while the remaining groups were administered EGCG or pirfenidone once daily at the following doses and administration methods: • Oral gavage EGCG group 1 and 2: 30 mg/kg, 60 mg/kg • Tracheal Nebulization EGCG group 1-4: 0.05 mg/kg, 0.4 mg/kg, 0.8 mg/kg, 1.6 mg/kg • Tracheal Nebulization pirfenidone solution group: 0.9 mg/kg (reference dose from M.W. Surber et al., ATS POSTER, 2014)
On D29, all animals were euthanized for dissection. During the necropsy, the lungs, trachea, and bronchi were examined for abnormalities. Left lung tissue was preserved at below -60°C for hydroxyproline content detection, and right lung tissue was prepared for pathological sectioning. Hematoxylin and eosin (HE) staining and Masson staining were performed for pathological morphological observations and fibrosis evaluation.
All groups were compared to the model group using statistical analysis via Kruskal-Wallis test. The results are indicated as follows: • *P < 0.05: statistically significant difference • **P < 0.01: highly significant difference • ***P < 0.001: extremely significant difference • ****P < 0.0001: extremely highly significant difference

Compound: O=C(O[C@@H]1Cc2c(O)cc(O)cc2O[C@@H]1c1cc(O)c(O)c(O)c1)c1cc(O)c(O)c(O)c1 [EGCG, (-)-Epigallocatechin gallate]
- hydroxyproline content in rat lungs, difference from the model group (inhalation 0.05 (P < 0.05), 0.4 (P < 0.0001), 0.8 and 1.6 mg/kg (P < 0.001)): significantly reduced
- hydroxyproline content in rat lungs, difference from the model group (oral administration 30 mg/kg, 60 mg/kg): not statistically significant
- Hydroxyproline Content (Inh 0.05mg/kg once daily D10 to D28): 0.528 ± 0.038 µg/µL
- Hydroxyproline Content (Inh 0.4mg/kg once daily D10 to D28): 0.433 ± 0.023 µg/µL
- Hydroxyproline Content (Inh 0.8mg/kg once daily D10 to D28): 0.485 ± 0.027 µg/µL
- Hydroxyproline Content (Inh 1.6 mg/kg once daily D10 to D28): 0.465 ± 0.028 µg/µL
- Hydroxyproline Content (PO 30mg/kg once daily D10 to D28): 0.608 ± 0.012 µg/µL
- Hydroxyproline Content (PO 60mg/kg once daily D10 to D28): 0.546 ± 0.026 µg/µL
